Patent US12485115B2, “Biased NMDA receptor modulators and uses thereof” (EDWARD VIA COLLEGE OF OSTEOPATHIC MEDICINE, priority 2018, dated 2025)
Where two headings read alike, the source gives them in different places. Values belong to the molecule of their own block, whether it stands above or below them.

Key:
Assay type in all cases: cell-based
GluN1/2A = GluN1/2A (Homo sapiens, UniProt Q05586+Q12879); assay: NMDA receptor subunit selectivity of CNS004 analogs, average response, 1/2A; conditions: compound 100 μM
GluN1/2B = GluN1/2B (Homo sapiens, UniProt Q05586+Q13224); assay: NMDA receptor subunit selectivity of CNS004 analogs, average response, 1/2B; conditions: compound 100 μM
GluN1/2A/2B (TH) = GluN1/2A/2B (TH) (Homo sapiens, UniProt Q05586+Q12879+Q13224); assay: NMDA receptor subunit selectivity of CNS004 analogs, average response, TH; conditions: compound 100 μM
GluN1/2A NMDA receptor [1] = target: T1, GluN1/2A NMDA receptor (Homo sapiens, UniProt Q05586+Q12879); assay: Two-electrode voltage clamp (TEVC), Xenopus oocytes expressing recombinant GluN1/2A
T1 sequence (Q12879 23-1464, other chains not shown): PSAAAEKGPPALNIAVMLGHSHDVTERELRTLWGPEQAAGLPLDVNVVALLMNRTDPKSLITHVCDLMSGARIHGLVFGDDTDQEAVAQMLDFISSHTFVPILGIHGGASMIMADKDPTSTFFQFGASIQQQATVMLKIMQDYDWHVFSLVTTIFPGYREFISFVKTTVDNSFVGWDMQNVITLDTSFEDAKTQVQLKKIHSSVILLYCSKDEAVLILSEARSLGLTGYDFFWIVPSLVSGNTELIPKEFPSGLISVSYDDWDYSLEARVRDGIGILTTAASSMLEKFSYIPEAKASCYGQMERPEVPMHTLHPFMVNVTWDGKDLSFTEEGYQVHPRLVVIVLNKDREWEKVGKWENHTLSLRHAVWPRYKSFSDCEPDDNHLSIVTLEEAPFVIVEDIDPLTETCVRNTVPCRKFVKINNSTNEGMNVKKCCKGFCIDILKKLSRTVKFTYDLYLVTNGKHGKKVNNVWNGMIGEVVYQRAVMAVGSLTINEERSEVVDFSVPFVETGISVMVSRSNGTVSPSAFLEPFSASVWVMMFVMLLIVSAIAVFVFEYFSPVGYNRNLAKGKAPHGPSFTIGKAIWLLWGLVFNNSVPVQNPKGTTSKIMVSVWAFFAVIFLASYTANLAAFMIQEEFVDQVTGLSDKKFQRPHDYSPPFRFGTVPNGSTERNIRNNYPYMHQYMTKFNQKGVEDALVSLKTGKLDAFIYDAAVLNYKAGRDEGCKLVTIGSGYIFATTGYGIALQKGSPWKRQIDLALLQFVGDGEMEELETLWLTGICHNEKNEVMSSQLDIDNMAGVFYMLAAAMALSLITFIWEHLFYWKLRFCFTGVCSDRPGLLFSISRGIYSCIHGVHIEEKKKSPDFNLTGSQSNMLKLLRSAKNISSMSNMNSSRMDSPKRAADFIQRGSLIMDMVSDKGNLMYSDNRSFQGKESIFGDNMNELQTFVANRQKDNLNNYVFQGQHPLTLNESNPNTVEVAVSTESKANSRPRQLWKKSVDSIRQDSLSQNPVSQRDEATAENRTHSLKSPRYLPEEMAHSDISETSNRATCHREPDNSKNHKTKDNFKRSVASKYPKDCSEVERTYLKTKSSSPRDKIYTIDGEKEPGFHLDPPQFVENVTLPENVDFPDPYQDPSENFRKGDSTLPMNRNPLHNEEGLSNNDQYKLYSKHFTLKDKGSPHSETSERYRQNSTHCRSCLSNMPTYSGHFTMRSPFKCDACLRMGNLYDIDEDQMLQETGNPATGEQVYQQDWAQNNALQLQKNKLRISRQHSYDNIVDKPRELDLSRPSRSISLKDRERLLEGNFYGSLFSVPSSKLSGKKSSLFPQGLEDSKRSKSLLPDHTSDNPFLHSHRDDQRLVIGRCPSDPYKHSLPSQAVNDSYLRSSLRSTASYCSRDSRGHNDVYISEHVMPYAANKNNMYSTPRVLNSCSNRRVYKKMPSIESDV
Protocol: (§1) Two-electrode voltage clamp)TEVC) and patch clamp electrophysiology techniques were used to study CNS004 induced changes in NMDA receptor functions. Briefly, appropriate combinations of cRNA encoding different NMDA receptor subunits were injected into Xenopus oocytes and incubated at about 18° C. for about 2-4 days before TEVC assays. TEVC assays were performed with a −60 mV holding potential. […]

GluN1/2B NMDA receptor = GluN1/2B NMDA receptor (Homo sapiens, UniProt Q05586+Q13224); assay: Two-electrode voltage clamp (TEVC), Xenopus oocytes expressing recombinant GluN1/2B
Protocol: as §1

[2] = target: GluN1/2A/2B triheteromeric NMDA receptor (Homo sapiens, UniProt Q05586+Q12879+Q13224); assay: Two-electrode voltage clamp (TEVC), Xenopus oocytes expressing recombinant GluN1/2A/2B
GluN1/2A/2B triheteromeric NMDA receptor, sequence (Q12879 23-1464, other chains not shown): as above
GluN1/2A/2B triheteromeric NMDA receptor, sequence (Q13224 27-1484, other chains not shown): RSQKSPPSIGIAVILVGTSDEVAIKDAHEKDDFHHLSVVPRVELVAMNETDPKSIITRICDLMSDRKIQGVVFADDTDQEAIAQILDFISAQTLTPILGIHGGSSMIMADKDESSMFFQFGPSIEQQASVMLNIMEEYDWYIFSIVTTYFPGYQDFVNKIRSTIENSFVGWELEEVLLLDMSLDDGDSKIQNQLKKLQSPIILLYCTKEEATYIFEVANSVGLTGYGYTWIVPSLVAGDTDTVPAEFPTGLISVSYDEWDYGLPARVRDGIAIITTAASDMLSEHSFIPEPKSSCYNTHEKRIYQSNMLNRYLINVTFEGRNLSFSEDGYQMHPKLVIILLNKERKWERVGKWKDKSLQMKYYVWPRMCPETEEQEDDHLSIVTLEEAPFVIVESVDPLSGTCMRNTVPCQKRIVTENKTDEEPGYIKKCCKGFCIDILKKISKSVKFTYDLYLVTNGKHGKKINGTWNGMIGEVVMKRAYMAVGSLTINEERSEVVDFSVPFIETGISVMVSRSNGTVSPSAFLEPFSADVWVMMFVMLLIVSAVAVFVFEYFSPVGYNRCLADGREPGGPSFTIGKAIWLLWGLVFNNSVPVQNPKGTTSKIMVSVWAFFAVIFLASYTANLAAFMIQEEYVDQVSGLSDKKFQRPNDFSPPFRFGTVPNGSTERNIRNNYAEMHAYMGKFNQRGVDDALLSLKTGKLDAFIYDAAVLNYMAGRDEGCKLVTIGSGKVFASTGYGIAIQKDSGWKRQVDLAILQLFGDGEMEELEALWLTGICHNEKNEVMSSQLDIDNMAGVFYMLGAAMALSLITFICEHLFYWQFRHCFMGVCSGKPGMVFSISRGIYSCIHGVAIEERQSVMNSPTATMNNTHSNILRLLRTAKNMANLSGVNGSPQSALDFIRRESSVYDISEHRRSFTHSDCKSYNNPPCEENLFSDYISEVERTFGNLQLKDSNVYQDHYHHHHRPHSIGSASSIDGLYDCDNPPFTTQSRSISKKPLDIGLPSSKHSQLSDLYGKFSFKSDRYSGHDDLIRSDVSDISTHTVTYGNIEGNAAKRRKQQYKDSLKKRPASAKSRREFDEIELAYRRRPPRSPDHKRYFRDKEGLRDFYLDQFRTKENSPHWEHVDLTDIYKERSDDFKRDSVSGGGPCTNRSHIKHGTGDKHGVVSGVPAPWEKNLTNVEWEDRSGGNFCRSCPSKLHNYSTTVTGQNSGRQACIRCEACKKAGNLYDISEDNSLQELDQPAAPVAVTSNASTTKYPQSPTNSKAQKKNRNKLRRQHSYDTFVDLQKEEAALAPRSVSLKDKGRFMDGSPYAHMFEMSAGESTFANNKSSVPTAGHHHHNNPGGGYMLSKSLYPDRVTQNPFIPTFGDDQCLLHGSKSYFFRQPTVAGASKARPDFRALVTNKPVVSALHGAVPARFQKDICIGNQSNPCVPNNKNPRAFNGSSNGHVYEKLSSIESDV
Protocol: Briefly, appropriate combinations of cRNA encoding different NMDA receptor subunits were injected into Xenopus oocytes and incubated at about 18° C. for about 2-4 days before TEVC assays. TEVC assays were performed with a −60 mV holding potential.

GluN1/2C NMDA receptor = GluN1/2C NMDA receptor (Homo sapiens, UniProt Q05586+Q14957); assay: Two-electrode voltage clamp (TEVC), Xenopus oocytes expressing recombinant GluN1/2C; conditions: 10 μM glycine and 10 μM glutamate; EC50 ND, n=6
Protocol: as §1

GluN1/2D NMDA receptor = GluN1/2D NMDA receptor (Homo sapiens, UniProt O15399+Q05586); assay: Two-electrode voltage clamp (TEVC), Xenopus oocytes expressing recombinant GluN1/2D; conditions: 10 μM glycine and 10 μM glutamate; EC50 ND, n=5
Protocol: as §1

GluN1/2A NMDA receptor [3] = target: T1, GluN1/2A NMDA receptor; assay: Patch clamp electrophysiology, HEK293T cells expressing recombinant GluN1/2A; conditions: 100 μM CNS004
Protocol: (§2) Patch clamp electrophysiology was also performed. Briefly, HEK293T cells were transfected with cDNA encoding NMDA receptor subunits 18-24 hours prior to patch clamp procedures. The effect of CNS004 on the agonist induced NMDA receptor function was evaluated at −80 mV.

[4] = target: T2, GluN1/2A/2B NMDA receptor (Homo sapiens, UniProt Q05586+Q12879+Q13224); assay: Patch clamp electrophysiology, HEK293T cells expressing recombinant GluN1/2A/2B
T2 construct: expressed in transfected cells; host or cells: HEK293T
Protocol: as §2

Structure (SMILES): O=C(NC(=S)N1CCCCC1c1cccnc1)c1ccc(P(=O)(O)O)cc1 (stereo not drawn) [Compound 7]
Average Response (% inhibition), 1/2A (GluN1/2A): −1.858 % inhibition
Average Response (% inhibition), 1/2B (GluN1/2B): 3.872 % inhibition
Average Response (% inhibition), TH (GluN1/2A/2B (TH)): 16.4617 % inhibition

Structure (SMILES): O=C(NC(=S)N1CCCCC1c1cccnc1)c1ccc(CCCF)cc1 (stereo not drawn) [Compound 6]
Average Response (% inhibition), 1/2A (GluN1/2A): −21.076 % inhibition
Average Response (% inhibition), 1/2B (GluN1/2B): 6.739 % inhibition
Average Response (% inhibition), TH (GluN1/2A/2B (TH)): 7.444 % inhibition

Structure (SMILES): CC(C(O)c1ccc(O)cc1)N1CCC(Cc2ccccc2)CC1 (stereo not drawn) [ifenprodil, reference compound]
selectivity for GluN1/2A/2B receptor (FIG. 9G) ([2]; GluN1/2B selective antagonist): intermediate selectivity

Structure (SMILES): Fc1ccc(C(=S)NC(=S)N2CCCCC2c2cccnc2)cc1 (stereo not drawn) [Compound 3]
Average Response (% inhibition), 1/2A (GluN1/2A): −52.246 % inhibition
Average Response (% inhibition), 1/2B (GluN1/2B): −45.1553 % inhibition
Average Response (% inhibition), TH (GluN1/2A/2B (TH)): −13.1155 % inhibition

Structure (SMILES): O=C(NC(=O)N1CCCCC1c1cccnc1)c1ccc(F)cc1 (stereo not drawn) [Compound 4]
Average Response (% inhibition), 1/2A (GluN1/2A): 20.43 % inhibition
Average Response (% inhibition), 1/2B (GluN1/2B): 5.755 % inhibition
Average Response (% inhibition), TH (GluN1/2A/2B (TH)): 4.722 % inhibition

Now from value to molecule, other results behind:

Average Response (% inhibition), 1/2A (GluN1/2A): −76.1696 % inhibition
Average Response (% inhibition), 1/2B (GluN1/2B): −14.5863 % inhibition
Average Response (% inhibition), TH (GluN1/2A/2B (TH)): −3.954 % inhibition
Structure (SMILES): O=C(NC(=S)N1CCCCC1c1cccnc1)c1ccc(C(F)(F)F)cc1 (stereo not drawn) [Compound 2]

effect on GluN1/2A (DRC) (GluN1/2A NMDA receptor [1]; 10 μM glycine and 10 μM glutamate, EC50 ND, n=6): minimally inhibited
change of glycine potency on GluN1/2A (GluN1/2A NMDA receptor [1]; 30 uM CNS4, glutamate 100 uM): increase in glycine potency
change of glutamate potency on GluN1/2A (GluN1/2A NMDA receptor [1]; 30 uM CNS4, glycine 100 uM): increase in glutamate potency
activity on GluN1/2A (averaged dose response curve) (GluN1/2A NMDA receptor [1]; 100 μM glycine and 100 μM glutamate, EC50 not determined, n=3): minimal activity
change of glycine potency on GluN1/2B (GluN1/2B NMDA receptor; 30 uM CNS4, glutamate 100 uM): increase in glycine potency
activity on GluN1/2B (averaged dose response curve) (GluN1/2B NMDA receptor; 100 μM glycine and 100 μM glutamate, EC50 not determined, n=4): minimal activity
EC50 (GluN1/2B NMDA receptor; read-out: EC50 of potentiation of GluN1/2B (averaged and normalized DRC)): 8.67 ± 2.77 µM
EC50 ([2]; 10 μM glycine and 10 μM glutamate, n=6, read-out: EC50 of potentiation of GluN1/2A/2B (averaged and normalized DRC)): 39 ± 22.4 µM
change of glycine potency on GluN1/2A/2B ([2]; 30 uM CNS4, glutamate 100 uM): increase in glycine potency
change of glutamate potency on TH (GluN1/2A/2B) ([2]; 30 uM CNS4, glycine 100 uM): increase in glutamate potency
effect on agonist induced current in GluN1/2A/2B in three sequences of application ([2]; 100 μM CNS004, 100 μM glycine+100 μM glutamate, co-application, agonist pre-application, CNS004 pre-application): potentiation
EC50 ([2]; 100 μM glycine and 100 μM glutamate, n=5, read-out: EC50 of potentiation of GluN1/2A/2B (averaged dose response curve)): 160 ± 15.4 µM
receptor activation in the absence of agonist glutamate or glycine ([2]; recombinant GluN1/2A, GluN1/2B and GluN1/2A/2B traces (FIG. 1E), no agonist): did not activate the receptor
effect on GluN1/2C (DRC) (GluN1/2C NMDA receptor): no activity
effect on GluN1/2D (DRC) (GluN1/2D NMDA receptor): minimally inhibited
effect of co-application with agonist on steady-state currents, GluN1/2A (GluN1/2A NMDA receptor [3]; 30 μM glycine and 100 μM glutamate): potentiates steady-state currents
effect on 1/2A receptor currents at reduced glutamate (GluN1/2A NMDA receptor [3]; 100 μM glycine and 300 nM glutamate): largely potentiated
effect of co-application with agonist on steady-state currents, GluN1/2A/2B ([4]; 100 μM CNS004, 30 μM glycine and 100 μM glutamate): potentiates steady-state currents
effect on 1/2A/2B currents at reduced glutamate ([4]; 100 μM CNS004, 100 μM glycine and 300 nM glutamate): inhibits
effect of CNS004 pre-application on steady-state currents, GluN1/2A/2B ([4]; 100 μM CNS004 pre-application, 30 μM glycine and 100 μM glutamate): steep reduction in steady-state currents
Structure (SMILES): O=C(NC(=S)N1CCCCC1c1cccnc1)c1ccc(F)cc1 (stereo not drawn) [CNS004, 4-Fluoro-N-(2-(pyridin-3-yl)piperidine-1-carbonothioyl)benzamide]
effect on glycine and/or glutamate potency in GluN1/2A/2B (FIGS. 15A-15H) ([2]; 30 μM and 100 μM CNS004): increases Glycine and/or Glutamate Potency
effect of pre-application of CNS004 alone on agonist induced current response ([2]; recombinant GluN1/2A, GluN1/2B and GluN1/2A/2B traces (FIG. 1E)): did not change the agonist induced current response
effect of CNS004 pre-application on desensitization, GluN1/2A/2B ([4]; 100 μM CNS004 pre-application, 30 μM glycine and 100 μM glutamate, GluN1/2A/2B only): promotes desensitization

Average Response (% inhibition), 1/2A (GluN1/2A): −3.81 % inhibition
Average Response (% inhibition), 1/2B (GluN1/2B): −56.1908 % inhibition
Average Response (% inhibition), TH (GluN1/2A/2B (TH)): −3.494 % inhibition
Structure (SMILES): O=C(NC(=S)N1CCCCC1c1cccnc1)c1cccc(F)n1 (stereo not drawn) [Compound 40]

Average Response (% inhibition), 1/2A (GluN1/2A): 15.8054 % inhibition
Average Response (% inhibition), 1/2B (GluN1/2B): 0.6785 % inhibition
Average Response (% inhibition), TH (GluN1/2A/2B (TH)): 27.54 % inhibition
Structure (SMILES): COc1cccc(C(=O)NC(=S)N2CCCCC2c2cccnc2)c1OC (stereo not drawn) [Compound 41]

Average Response (% inhibition), 1/2A (GluN1/2A): −31.9381 % inhibition
Average Response (% inhibition), 1/2B (GluN1/2B): −19.0618 % inhibition
Average Response (% inhibition), TH (GluN1/2A/2B (TH)): −11.9509 % inhibition
Structure (SMILES): O=C(NC(=S)N1CCCCC1c1cccnc1)c1ccc(Cl)c(F)c1 (stereo not drawn) [Compound 9]

Average Response (% inhibition), 1/2A (GluN1/2A): 7.117 % inhibition
Average Response (% inhibition), 1/2B (GluN1/2B): 9.468 % inhibition
Average Response (% inhibition), TH (GluN1/2A/2B (TH)): −2.571 % inhibition
Structure (SMILES): O=C(NC(=S)N1CCCCC1c1cccnc1)c1ccc(C2CC2)cc1 (stereo not drawn) [Compound 5]

Average Response (% inhibition), 1/2A (GluN1/2A): 0.4959 % inhibition
Average Response (% inhibition), 1/2B (GluN1/2B): 6.998 % inhibition
Average Response (% inhibition), TH (GluN1/2A/2B (TH)): 8.377 % inhibition
Structure (SMILES): COCCCc1ccc(C(=O)NC(=S)N2CCCCC2c2cccnc2)cc1 (stereo not drawn) [Compound 8]
